Source: patent publication US9609810B2, “Methods for modulating photosynthetic activity” (priority 2012, dated 2017)

What was measured:
Type in all cases: in vivo
[1] = test system: dwarf sunflower (Helianthus annuus L.) plants; experiment: Stomata conductance and transpiration in greenhouse-grown plants; settings: foliar application of aqueous 10 ppm NaHS, pH 7.4, once per evening for one week; compared to control plants
Text: In the following example, a treatment group of dwarf sunflower (Helianthus annuus L.) plants is sprayed once each evening with an aqueous “treatment solution” of 10 ppm sodium hydrosulfide (NaHS) in distilled water, buffered with phosphate, to a pH of 7.4. The control group of plants is sprayed once each evening with an equivalent amount of “control solution” consisting of distilled water buffered with phosphate to a pH of 7.4. The treatment and control groups each include seven plants. The dwarf sunflower plants are grown from seed in 20-cm diameter plastic pots. Each pot contains one plant growing in a peat, sand mixture. […]
Stomata conductance is measured with a steady state porometer (LiCor model LI-1600, LiCor Inc., Lincoln, Nebr.). Measurements are made on the abaxial leaf surfaces where the majority of stomata are located and are recorded after the treated group and the control group are sprayed once per evening for one week.
The transpiration rate is determined by calculating the vapor pressure at the evaporating surface (leaf) and the air vapor pressure. The saturated vapor pressure of the leaf is calculated by measuring leaf temperature. Leaf temperature is measured using an external thermocouple as well as the LICor porometer. […] Relative humidity is determined using a sling psychrometer. […] Averages for 7 plants of each group are calculated and plotted.

[2] = test system: potted pepper (Capsicum sp.) plants; experiment: Transpiration reduction in pepper plants grown in a growth chamber; settings: compared to control plants
Experimental: In the following example, a treatment group of potted pepper (Capsicum sp.) plants is sprayed once each evening with an aqueous “treatment solution” of 10 ppm sodium hydrosulfide (NaHS) in distilled water, buffered with phosphate, to a pH of 7.4. The control group of plants is sprayed once each evening with an equivalent amount of “control solution” consisting of distilled water buffered with phosphate to a pH of 7.4. Potted pepper plants are grown in a temperature controlled growth-chamber under metal halide lamps. Average temperature in the growth chamber is about 20° C., and relative humidity is about 60%. Pots contain a greenhouse mix peat soil enriched with slow release fertilizer. Environmental conditions (light, temperature, and relative humidity) inside the growth chamber are monitored every 30 minutes during the experiment using standard environmental sensors such as a pyranometer, thermocouple psychrometer, relative humidity sensor and a datalogger. […]
The treatment solution of aqueous sodium hydrosulfide (NaHS) is sprayed once each night onto the top surface and bottom surface of leaves as described in Example 1 using a simple hand sprayer. The control group receives the same quantity of water alone which is sprayed each night onto the leaves in the same fashion as the treated group. […]

corn (Zea Maize) = experiment: Water used to irrigate corn grown under field conditions; settings: end of growing season; compared to non-treated control corn
Text: In the following example, a treatment group of corn (Zea Maize) is sprayed once each evening with an aqueous “treatment solution” of 10 ppm sodium hydrosulfide (NaHS) in distilled water, buffered with phosphate, to a pH of 7.4. The control group of plants is sprayed once each evening with an equivalent amount of “control solution” consisting of distilled water buffered with phosphate to a pH of 7.4. An experimental plot may be setup with 8 repetitions to obtain statistically independent results. The treatment (aqueous NaHS) and control (water alone) plots may be set up following a randomized scheme. […]
Water Use Measurements. […] This allows the measurement of water used in every single plot such that evaluation of water use differences between the water-alone control crops and NaHS treated crops can be monitored. The system is installed in such a way that every plant may receive a given amount of water determined by using constant rate water applicators. […] Soil water content (SWC) is measured continuously, using a Time Domain Reflectometer sensor installed in each of the twenty-four rows. […] The sensors are monitored by a datalogger (model 23X, Campbell Scientific Inc., Logan, Utah). The probes may be 30 cm long, and can be buried vertically, such that average volumetric water content of the top 30 cm of the soil is measured. […] The soil water content may be measured every 60 seconds. […]

In the case of `S` [NaHS, sodium hydrosulfide], the stomata conductance [1] is reported as “decrease in stomata conductance”, the transpiration ([2]; optimally watered plants sprayed each night with 10 ppm NaHS) is reported as “reduction in transpiration” and the cumulative water use ([2]; water stress conditions, sprayed each night with 10 ppm NaHS) is reported as “cumulative water use in control plants is consistently higher”. For the same molecule, the “biomass production (total dry matter)” value (corn (Zea Maize)) was “higher biomass production”.
